Experimental data as given in patent US11154544B2, “Amide derivatives as Nav1.7 and Nav1.8 blockers” (RaQualia Pharma Inc., priority 2017, dated 2021).
Several values for one entry are separate records, joined by “and”; a condition that tells them apart may be missing. Equal entries are not always repeated. Where two headings read alike, the source gives them in different places.

Assays:
Assay type in all cases: cell-based
Nav1.7 [1] = target: T1, Nav1.7 (Homo sapiens (Human), UniProt Q15858); assay: EFS-FRET assay
T1 sequence (Q15858 whole entry): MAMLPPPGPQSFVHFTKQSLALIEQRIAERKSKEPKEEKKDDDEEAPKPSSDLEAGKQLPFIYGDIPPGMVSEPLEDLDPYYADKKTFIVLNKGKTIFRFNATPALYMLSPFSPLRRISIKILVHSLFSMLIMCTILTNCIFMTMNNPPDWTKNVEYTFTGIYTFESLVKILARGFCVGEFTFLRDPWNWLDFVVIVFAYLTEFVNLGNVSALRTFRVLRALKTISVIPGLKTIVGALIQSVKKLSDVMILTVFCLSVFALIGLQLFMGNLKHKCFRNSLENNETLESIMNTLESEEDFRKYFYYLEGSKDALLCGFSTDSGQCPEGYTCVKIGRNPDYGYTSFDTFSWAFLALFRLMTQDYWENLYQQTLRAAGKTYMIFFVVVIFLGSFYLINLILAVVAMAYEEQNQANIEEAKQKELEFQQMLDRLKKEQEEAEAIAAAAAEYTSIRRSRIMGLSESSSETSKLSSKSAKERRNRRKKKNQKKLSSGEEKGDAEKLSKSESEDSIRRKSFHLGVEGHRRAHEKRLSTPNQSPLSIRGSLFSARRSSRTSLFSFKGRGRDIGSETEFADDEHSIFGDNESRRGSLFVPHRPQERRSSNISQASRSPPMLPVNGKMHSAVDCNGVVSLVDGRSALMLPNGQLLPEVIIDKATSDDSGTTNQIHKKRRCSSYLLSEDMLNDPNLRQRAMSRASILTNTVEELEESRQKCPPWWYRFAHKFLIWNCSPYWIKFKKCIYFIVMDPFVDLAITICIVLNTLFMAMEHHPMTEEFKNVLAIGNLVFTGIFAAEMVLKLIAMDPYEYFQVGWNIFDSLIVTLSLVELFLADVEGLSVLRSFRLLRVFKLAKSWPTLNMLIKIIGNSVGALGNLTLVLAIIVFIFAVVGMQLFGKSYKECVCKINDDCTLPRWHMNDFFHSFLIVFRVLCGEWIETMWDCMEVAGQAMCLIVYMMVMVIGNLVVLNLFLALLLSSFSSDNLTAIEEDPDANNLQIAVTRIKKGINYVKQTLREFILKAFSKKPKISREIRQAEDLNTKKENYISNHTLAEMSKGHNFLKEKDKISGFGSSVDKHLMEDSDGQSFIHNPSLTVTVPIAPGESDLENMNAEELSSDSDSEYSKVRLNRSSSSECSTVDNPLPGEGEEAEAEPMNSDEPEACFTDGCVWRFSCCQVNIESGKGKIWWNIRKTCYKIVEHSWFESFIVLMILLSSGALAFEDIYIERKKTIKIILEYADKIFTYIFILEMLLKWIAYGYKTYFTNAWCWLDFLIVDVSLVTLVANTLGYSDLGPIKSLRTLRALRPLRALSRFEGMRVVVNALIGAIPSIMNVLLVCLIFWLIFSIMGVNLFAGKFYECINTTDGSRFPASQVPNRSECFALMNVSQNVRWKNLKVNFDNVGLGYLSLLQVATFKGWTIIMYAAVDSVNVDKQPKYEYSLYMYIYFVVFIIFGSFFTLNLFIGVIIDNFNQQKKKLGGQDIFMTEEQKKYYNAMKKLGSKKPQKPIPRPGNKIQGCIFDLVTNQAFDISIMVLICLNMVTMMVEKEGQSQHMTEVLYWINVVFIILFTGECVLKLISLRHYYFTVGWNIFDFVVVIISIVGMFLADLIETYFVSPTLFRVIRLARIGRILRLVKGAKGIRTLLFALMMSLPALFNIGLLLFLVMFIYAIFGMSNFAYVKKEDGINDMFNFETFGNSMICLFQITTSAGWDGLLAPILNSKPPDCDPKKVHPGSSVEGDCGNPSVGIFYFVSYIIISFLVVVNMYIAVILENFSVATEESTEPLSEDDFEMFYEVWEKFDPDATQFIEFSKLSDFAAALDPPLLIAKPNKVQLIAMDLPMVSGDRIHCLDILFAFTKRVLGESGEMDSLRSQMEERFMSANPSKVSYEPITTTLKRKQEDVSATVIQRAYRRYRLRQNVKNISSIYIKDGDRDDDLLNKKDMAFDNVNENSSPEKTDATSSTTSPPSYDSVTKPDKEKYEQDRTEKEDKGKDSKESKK
Method: This screen is used to determine the effects of compounds on human Nav1.7 channels, utilizing electrical field stimulation (EFS) system in 96-well plate format on FDSS (Hamamatsu Photonics) platform. The change of membrane potential is monitored with FRET dye pair, DiSBAC2(3) and PTS 18.
CHO (Chinese hamster ovary) cells expressing human Nav1.7 channels are grown in T225 flasks, in a 5% CO2 humidified incubator to about 80% confluence. Media composition consists of HAM/F^.12 with Glutamax I, 10% FCS, 100 units/mL penicillin and 100 microgram/mL hygromycin.
Seed each cell lines (1×10^5 cells/well) into 96-well plates prior to experimentation.
Incubate at 37° C. in 5% CO2, for 24 hours.
Wash each well with assay buffer (140 mM NaCl, […], 10 mM D-Glucose, 2 mM CaCl2, 1 mM MgCl2, 10 mM HEPES, pH 7.4 adjusted with NaOH) twice.
Add 1st loading solution containing 10 microM PTS18 and 0.06% Pluronic F-127 in assay buffer.
Incubate the plate at rt in dark for 1 hour. • Remove 1st loading solution and add 2nd loading solution containing 12.5 microM DiSBAC2(3), 1.25 mM Xylene Fast Yellow and 0.0075% Pluronic F-127 in assay buffer. • Place the plate under the dark at rt for 25 minutes. • Add compound solutions into the assay plate. • Set the assay plate in FDSS and place an EFS device on the plate. • Measure EFS-induced fluorescent response by FDSS.
The data are analyzed and reported as normalized ratios of intensities measured at […]. The process of calculating these ratios is performed as follows:
This analysis is performed using a computerized specific program designed for
FDSS generated data. Fluorescence ratio values are plotted using XLfit to determine an IC50 value for each, compound.

human Nav1.8 channels = human Nav1.8 channels (Homo sapiens (Human), UniProt Q9Y5Y9); assay: FRET assay (FDSS)
Sequence of human Nav1.8 channels (Q9Y5Y9 whole entry): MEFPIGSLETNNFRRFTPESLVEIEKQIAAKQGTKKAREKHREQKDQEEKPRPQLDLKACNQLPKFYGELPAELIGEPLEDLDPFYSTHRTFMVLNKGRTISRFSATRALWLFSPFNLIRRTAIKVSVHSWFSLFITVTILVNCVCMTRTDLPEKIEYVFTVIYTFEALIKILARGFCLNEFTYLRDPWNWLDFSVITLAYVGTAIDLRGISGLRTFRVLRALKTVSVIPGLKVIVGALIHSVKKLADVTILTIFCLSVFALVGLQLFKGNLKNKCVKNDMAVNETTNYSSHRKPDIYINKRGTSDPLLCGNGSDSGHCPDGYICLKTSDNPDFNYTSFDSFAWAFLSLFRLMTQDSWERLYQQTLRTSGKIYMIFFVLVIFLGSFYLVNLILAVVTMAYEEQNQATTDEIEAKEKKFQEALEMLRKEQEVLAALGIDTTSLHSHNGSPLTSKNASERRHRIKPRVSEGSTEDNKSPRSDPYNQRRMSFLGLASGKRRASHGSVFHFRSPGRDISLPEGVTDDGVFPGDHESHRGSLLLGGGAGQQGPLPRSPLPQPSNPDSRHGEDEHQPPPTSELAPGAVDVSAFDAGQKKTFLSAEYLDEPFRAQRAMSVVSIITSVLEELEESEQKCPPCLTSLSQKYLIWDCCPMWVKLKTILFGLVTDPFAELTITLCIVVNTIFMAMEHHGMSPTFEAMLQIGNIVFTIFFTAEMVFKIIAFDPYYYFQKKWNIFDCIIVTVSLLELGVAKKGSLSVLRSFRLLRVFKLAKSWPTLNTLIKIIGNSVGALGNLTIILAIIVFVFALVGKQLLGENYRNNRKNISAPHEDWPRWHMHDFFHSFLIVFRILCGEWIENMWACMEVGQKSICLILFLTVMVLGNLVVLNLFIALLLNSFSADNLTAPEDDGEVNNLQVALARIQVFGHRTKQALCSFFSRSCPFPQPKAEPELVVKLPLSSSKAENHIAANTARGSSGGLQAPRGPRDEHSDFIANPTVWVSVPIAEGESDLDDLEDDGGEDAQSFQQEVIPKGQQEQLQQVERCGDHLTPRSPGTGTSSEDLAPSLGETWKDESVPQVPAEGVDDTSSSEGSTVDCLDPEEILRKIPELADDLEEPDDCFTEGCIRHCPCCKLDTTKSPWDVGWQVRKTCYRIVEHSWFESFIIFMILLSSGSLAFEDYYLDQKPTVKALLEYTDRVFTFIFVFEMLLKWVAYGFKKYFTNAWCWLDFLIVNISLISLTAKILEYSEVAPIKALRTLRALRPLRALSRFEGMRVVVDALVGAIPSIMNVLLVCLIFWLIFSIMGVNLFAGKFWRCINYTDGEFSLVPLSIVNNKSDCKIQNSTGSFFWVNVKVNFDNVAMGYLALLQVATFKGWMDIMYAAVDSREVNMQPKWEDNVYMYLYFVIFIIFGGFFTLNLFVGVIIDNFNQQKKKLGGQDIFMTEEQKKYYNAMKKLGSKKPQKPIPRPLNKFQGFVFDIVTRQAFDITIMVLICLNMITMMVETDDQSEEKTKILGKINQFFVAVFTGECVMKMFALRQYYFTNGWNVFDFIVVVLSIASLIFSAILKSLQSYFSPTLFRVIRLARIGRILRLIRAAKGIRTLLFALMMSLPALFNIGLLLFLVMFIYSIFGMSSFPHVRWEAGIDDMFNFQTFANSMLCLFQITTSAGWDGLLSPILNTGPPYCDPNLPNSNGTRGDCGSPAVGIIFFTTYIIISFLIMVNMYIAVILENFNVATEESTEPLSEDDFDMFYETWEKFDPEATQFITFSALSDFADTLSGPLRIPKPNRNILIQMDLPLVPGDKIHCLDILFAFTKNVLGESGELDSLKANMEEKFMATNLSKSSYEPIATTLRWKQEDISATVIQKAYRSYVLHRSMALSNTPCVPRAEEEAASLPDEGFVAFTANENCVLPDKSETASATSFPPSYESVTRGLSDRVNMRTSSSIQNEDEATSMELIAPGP
Method: (§1) This screen is used to determine the effects of compounds on human Nav1.8, and human Nav1.5 channels, utilizing the cell imaging technology by Hamamatsu Photonics's Functional Drug Screening System (FDSS). The changes of membrane potential are monitored with fluorescent membrane potential dye pair, DiSBAC2(3) and CC2-DMPE, using FRET technology.
(§2) HEK293 cells expressing human Nav1.8 channels or human Nav1.5 channels are grown in T225 flasks, in a 5% CO2 humidified incubator to about 80% confluence. Media composition of HEK293 cells expressing human Nav1.8 channels consists of Dulbecco's Modified Eagle Medium (high glucose), 10% fetal calf serum (FCS), 100 units/mL Penicillin, 100 microgram/mL Streptomycin, 200 microgram/mL Zeocin and 500 microgram/mL Geneticine. HEK293 cells expressing human Nav1.5 channels are maintained in Dulbecco's Modified Eagle Medium (high glucose) supplemented with 10% fetal calf serum (FCS), 100 units/mL Penicillin, 100 microgram/mL Streptomycin and 500 microgram/mL Geneticine.
(§3) Seed each cell lines (1.5×10^4 cells/well) into 384-well plates prior to experimentation.
(§4) Incubate at 37° C. in 5% CO2 for 24 hours.
(§5) Wash each well with buffer #1 (140 mM NaCl, 4.5 mM KCl, 10 mM D-Glucose, 2 mM CaCl2, 1 mM MgCl2, 10 mM HEPES, pH 7.4 adjusted with. NaOH) twice using plate washer.
(§6) Add 1st loading solution containing 7.5 microM CC2-DMPE and 0.06% Pluronic F-127 in buffer #1.
(§7) Incubate the plate at rt in dark for 0.5 hours.
(§8) Wash each well with buffer #2 (160 mM Choline, 10 mM D-Glucose, 0.1 mM CaCl2, 1 mM MgCl2, 1.0 mM HEPES, pH 7.4 adjusted with KOH) twice using plate washer.
(§9) Add 2nd loading solution containing 75 microM DiSBAC2(3), 2.5 mM Xylene Fast Yellow, 10 microM Deltamethrin or 100 microM veratridine and 0.02% Pluronic F-127 in buffer #2.
(§10) Add compound solutions into the assay plate and leave the plate for 30 minutes under the dark at rt.
(§11) Monitor the fluorescent membrane potentials before and after the addition of buffer #2 by FDSS.
(§12) The data is analyzed and reported as normalized ratios of intensities measured in the 465 nm and 575 nm channels. The process of calculating these ratios is performed as follows: FR=(FI465Max/FI575Min)−(FI465B/FI575B) [Math.2]
(§13) “FI465B”=the mean of fluorescence intensity as baseline (before Na^+ ligand addition) at 465 nm
(§14) “FI575B”=the mean of fluorescence intensity as baseline (before Na^+ ligand addition) at 575 nm
(§15) “FI465Max”=maximum fluorescence intensity at 465 nm after Na^+ stimulation
(§16) “FI575Min”=minimum fluorescence intensity at 575 nm after Na^+ stimulation
(§17) This analysis is performed using a computerized specific program designed for FDSS generated data. Fluorescence ratio values are plotted using XLfit to determine an IC50 value for each compound.

human Nav1.5 channels = human Nav1.5 channels (Homo sapiens (Human), UniProt Q14524); assay: FRET assay (FDSS); conditions: HEK293 cells expressing human Nav1.5, read-out: activity (IC50) against Nav1.5
Method: as §1, §2, §3, §4, §5, §6, §7, §8, §9, §10, §11, §12, §13, §14, §15, §16, §17

Nav1.7 [2] = target: T1, Nav1.7; assay: Electrophysiology assay, whole cell patch clamp, affinity to inactivated state; conditions: read-out: activities (Ki) against Nav1.7
Method: Whole cell patch clamp recording is used to assess the efficacy or selectivity of Na channel blocker on human voltage gated sodium channels. Na channel expressing cells are dissociated by 0.05% Trypsine-EDTA or Accutase, and then seeded on cover glass for 2-24 hrs.
Manual patch clamp recordings are conducted at rt using the voltage-clamp amplifier (Axon Instruments or HEKA electronik). Electrodes are pulled with P-97 electrode puller (Sutter Instrument). The electrode resistances are 1-3 MOhm when intracellular solution is filled. Currents are lowpass filtered between 2-5 kHz and digitally sampled at 10 kHz.
The extracellular and intercellular solutions for human Nav1.7 and Nav1.5 consist of the following composition: […]
The normalized steady-state inactivation curve is constructed using 2 sec (for vehicle) or 60 sec (for drugs) conditioning pulse to different potentials followed immediately by the test pulse to −10 mV. […] The affinity of test compound to resting state of Na channels (Kresting or Kr) is assessed by depolarizing test pulse from a negative holding potential of −130 mV, where virtually all channels are in the resting state. Kr value is calculated by a conventional 1:1 binding model: Kresting(Kr)={[drug]Imax,drug/(Imax, control−Imax, drug)} [Math.8] • where Kresting (=Kr) is a dissociation constant for the resting state and [drug] is compound concentration. […]

[3] = EFS-FRET, CHO cells expressing human Nav1.7, read-out: IC50 against Nav1.7
[4] = Table 1, read-out: Nav1.7 activity (IC50)

Structure (SMILES)	IC50 (Nav1.7 [1]; [3])	also measured
CC(CNC(=O)c1ccnc(NC(=O)C2CC2)c1)Oc1ccc(C(F)(F)F)cc1 (stereo not shown) [Example 1, 2-(cyclopropanecarboxamido)-N-(2-(4-(trifluoromethyl)phenoxy)propyl)isonicotinamide]	–	IC50 (human Nav1.5 channels): > 30000 nM; IC50 (human Nav1.8 channels; FRET, HEK293 cells expressing human Nav1.8, read-out: IC50 against Nav1.8): 650 nM
CC(=O)Nc1cc(C(=O)NCCSc2ncc(C(F)(F)F)cc2Cl)cc(C)n1 [Example 54]	< 500 nM	–
COc1cc(C(F)(F)F)ccc1OCCNC(=O)c1cc(C)nc(NC(C)=O)c1 [Example 128]	< 500 nM	–
CCC(=O)Nc1cc(C(=O)N[C@H](C)COc2ncc(C(F)(F)F)cc2Cl)ccn1 [Example 64]	< 500 nM	–
CCC(=O)Nc1cc(C(=O)NCCCNc2ncc(C(F)(F)F)cc2Cl)ccn1 [Example 119]	< 500 nM	–
O=C(NCCOc1ccc(S(F)(F)(F)(F)F)cc1)c1ccnc(NC(=O)C2CC2)c1 [Example 33]	< 500 nM	–
CCC(=O)Nc1cc(C(=O)NCCOc2ccc(C(F)(F)F)cc2F)cc(C)n1 [Example 94]	< 500 nM	–
CC(C)C(=O)Nc1cc(C(=O)NCCOc2ccc(OC(F)(F)F)c(F)c2)ccn1 [Example 149]	< 500 nM	–
Cc1cc(C(=O)NCCOc2ncc(C(F)(F)F)cc2Cl)cc(NC(=O)C(C)C)n1 [Example 35]	190 nM and < 500 nM	IC50 (Nav1.7 [1]; [4]): 190 nM; activity against Nav1.8 (human Nav1.8 channels): good activity
CCC(=O)Nc1cc(C(=O)NCCNc2ncc(C(F)(F)F)cc2Cl)ccn1 [Example 3]	< 500 nM	Ki (Nav1.7 [2]): 960 nM
O=C(NCCOc1ncc(C(F)(F)F)cc1Cl)c1ccnc(NC(=O)C2CC2)n1 [Example 36]	< 500 nM	–
CC(C)C(=O)Nc1cc(C(=O)NCCCOc2ncc(C(F)(F)F)cc2Cl)ccn1 [Example 123]	< 500 nM	–
CC(=O)Nc1cc(C(=O)NCCOc2ccc(OC(F)(F)F)cc2Cl)ccn1 [Example 113]	< 500 nM	–
Cc1cc(C(F)(F)F)ccc1OCCNC(=O)c1ccnc(NC(=O)C(C)C)c1 [Example 143]	< 500 nM	–
Cc1cc(C(=O)NCCOc2ncc(C(F)(F)F)cc2Cl)cc(NC(=O)C2CC2)n1 [Example 25]	< 500 nM	–
CC(=O)Nc1cc(C(=O)NCCOc2cccc(OC(F)(F)F)c2)cc(C)n1 [Example 19]	< 500 nM	–
CC(=O)Nc1cc(C(=O)NCCOc2ccc(C(F)(F)F)cc2C)ccn1 [Example 138]	< 500 nM	–

Now from value to compound, other results behind:

IC50 (Nav1.7 [1]; [3])	Structure (SMILES)	also measured
370 nM and < 500 nM	CC(C)C(=O)Nc1cc(C(=O)NCCOc2ncc(C(F)(F)F)cc2Cl)ccn1 [Example 13]	IC50 (Nav1.7 [1]; [4]): 370 nM; activity against Nav1.8 (human Nav1.8 channels): good activity
< 500 nM	CC(=O)Nc1cc(C(=O)NCCNc2ncc(C(F)(F)F)cc2Cl)cc(C)n1 [Example 4]	Ki (Nav1.7 [2]): 520 nM
< 500 nM	CCC(=O)Nc1cc(C(=O)N[C@H](C)COc2ncc(C(F)(F)F)cc2Cl)cc(C)n1 [Example 66]	–
< 500 nM	CC(=O)Nc1cc(C(=O)NCCOc2ccc(C(F)(F)F)cc2C)cc(C)n1 [Example 140]	–
< 500 nM	O=C(NCCOc1ccc(C(F)(F)F)cc1Cl)c1ccnc(NC(=O)C2CC2)n1 [Example 43]	–
< 500 nM	CC(=O)Nc1cc(C(=O)NCCOc2ccc(S(F)(F)(F)(F)F)cc2)cc(C)n1 [Example 31]	–
< 500 nM	CC(C)C(=O)Nc1cc(C(=O)NCCOc2ccc(C(F)(F)F)cc2Cl)ccn1 [Example 22]	–
< 500 nM	O=C(NCCOc1ccc(C(F)(F)F)cc1Cl)c1ccnc(NC(=O)C2CC2)c1 [Example 40]	–
< 500 nM	Cc1cc(C(=O)N[C@H](C)COc2ncc(C(F)(F)F)cc2Cl)cc(NC(=O)C(C)C)n1 [Example 70]	–
< 500 nM	Cc1cc(C(=O)NC[C@@H](C)Oc2ncc(C(F)(F)F)cc2Cl)cc(NC(=O)C2CC2)n1 [Example 76]	–
< 500 nM	CC(=O)Nc1cc(C(=O)NCCOc2ccc(OC(F)(F)F)cc2Cl)cc(C)n1 [Example 116]	–
< 500 nM	CCC(=O)Nc1cc(C(=O)NCCOc2ccc3cc(C(F)(F)F)ccc3n2)cc(C)n1 [Example 44]	–
< 500 nM	Cc1cc(C(=O)NCCOc2ccc(C(F)(F)F)cc2C)cc(NC(=O)C(C)C)n1 [Example 145]	–
